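Compound exposure: 48 hours, 5 concentrations, 96-well plates. The concentration for 50% growth inhibition is given as GI50.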 Active and inactive are the calls of the source. No stated cut-off is given here; in the data, active = GI50 up to about 1.1 µM and inactive = higher.
Legend:
Assay in all cases: DTP human tumour cell line panel, 48 h
NCI-H226 = system: NCI-H226
KM-20L2 = system: KM-20L2
SN12C = system: SN12C
OVCAR-3 = system: OVCAR-3
HOP-18 = system: HOP-18
EKVX = system: EKVX
HOP-92 = system: HOP-92
OVCAR-8 = system: OVCAR-8
IGROV-1 = system: IGROV-1
NCI-H23 = system: NCI-H23
UACC-257 = system: UACC-257
HCT-15 = system: HCT-15
SF-295 = system: SF-295
786-0 = system: 786-0
A498 = system: A498
SNB-78 = system: SNB-78
DLD-1 = system: DLD-1
COLO 205 = system: COLO 205
XF498 = system: XF498
RXF 393 = system: RXF 393
OVCAR-4 = system: OVCAR-4
TK-10 = system: TK-10
MOLT-4 = system: MOLT-4
HL-60 = system: HL-60
UACC-62 = system: UACC-62
DMS-273 = system: DMS-273
SNB-75 = system: SNB-75
SNB-19 = system: SNB-19
SK-MEL-28 = system: SK-MEL-28
OVCAR-5 = system: OVCAR-5
A549 = system: A549
LXFL 529 = system: LXFL 529
UO-31 = system: UO-31
K562 = system: K562
SK-MEL-2 = system: SK-MEL-2
SR = system: SR
ACHN = system: ACHN
HOP-62 = system: HOP-62
HCT-116 = system: HCT-116
HT-29 = system: HT-29
CCRF-CEM = system: CCRF-CEM
DMS-114 = system: DMS-114
SF-539 = system: SF-539
SF-268 = system: SF-268
RPMI-8226 = system: RPMI-8226
SK-MEL-5 = system: SK-MEL-5
HCC 2998 = system: HCC 2998
SW-620 = system: SW-620
M14 = system: M14
NCI-H460 = system: NCI-H460
KM12 = system: KM12
CAKI-1 = system: CAKI-1
NCI-H522 = system: NCI-H522
SK-OV-3 = system: SK-OV-3
Malme-3M = system: Malme-3M
LOX IMVI = system: LOX IMVI
U-251 = system: U-251
M19-MEL = system: M19-MEL

SMILES: O=C(CCc1nnc(S)[nH]1)Nc1cccc(C(F)(F)F)c1
- GI50 (NCI-H226): > 100 µM (inactive)
- GI50 (KM-20L2): > 100 µM (inactive)
- GI50 (SN12C): > 100 µM (inactive)
- GI50 (OVCAR-3): > 100 µM (inactive)
- GI50 (HOP-18): > 100 µM (inactive)
- GI50 (EKVX): > 100 µM (inactive)
- GI50 (HOP-92): > 100 µM (inactive)
- GI50 (OVCAR-8): > 100 µM (inactive)
- GI50 (IGROV-1): > 100 µM (inactive)
- GI50 (NCI-H23): > 100 µM (inactive)
- GI50 (UACC-257): > 100 µM (inactive)
- GI50 (HCT-15): > 100 µM
- GI50 (SF-295): > 100 µM (inactive)
- GI50 (786-0): > 100 µM (inactive)
- GI50 (A498): > 100 µM (inactive)
- GI50 (SNB-78): > 100 µM (inactive)
- GI50 (DLD-1): > 100 µM (inactive)
- GI50 (COLO 205): 80 µM (inactive)
- GI50 (XF498): > 100 µM (inactive)
- GI50 (RXF 393): > 100 µM (inactive)
- GI50 (OVCAR-4): > 100 µM (inactive)
- GI50 (TK-10): > 100 µM (inactive)
- GI50 (MOLT-4): > 100 µM (inactive)
- GI50 (HL-60): > 100 µM (inactive)
- GI50 (UACC-62): > 100 µM (inactive)
- GI50 (DMS-273): > 100 µM (inactive)
- GI50 (SNB-75): > 100 µM (inactive)
- GI50 (SNB-19): > 100 µM (inactive)
- GI50 (SK-MEL-28): > 100 µM (inactive)
- GI50 (OVCAR-5): > 100 µM (inactive)
- GI50 (A549): > 100 µM (inactive)
- GI50 (LXFL 529): > 100 µM (inactive)
- GI50 (UO-31): > 100 µM (inactive)
- GI50 (K562): > 100 µM (inactive)
- GI50 (SK-MEL-2): > 100 µM (inactive)
- GI50 (SR): > 100 µM (inactive)
- GI50 (ACHN): > 100 µM (inactive)
- GI50 (HOP-62): > 100 µM (inactive)
- GI50 (HCT-116): > 100 µM (inactive)
- GI50 (HT-29): > 100 µM (inactive)
- GI50 (CCRF-CEM): > 100 µM (inactive)
- GI50 (DMS-114): > 100 µM (inactive)
- GI50 (SF-539): > 100 µM (inactive)
- GI50 (SF-268): > 100 µM (inactive)
- GI50 (RPMI-8226): > 100 µM (inactive)
- GI50 (SK-MEL-5): > 100 µM (inactive)
- GI50 (HCC 2998): > 100 µM (inactive)
- GI50 (SW-620): 11.2 µM (inactive)
- GI50 (M14): > 100 µM (inactive)
- GI50 (NCI-H460): > 100 µM (inactive)
- GI50 (KM12): > 100 µM (inactive)
- GI50 (CAKI-1): > 100 µM (inactive)
- GI50 (NCI-H522): 35.2 µM (inactive)
- GI50 (SK-OV-3): > 100 µM (inactive)
- GI50 (Malme-3M): > 100 µM (inactive)
- GI50 (LOX IMVI): > 100 µM (inactive)
- GI50 (U-251): > 100 µM (inactive)

SMILES: Cc1ccccc1NC(=O)CSc1nnc(-c2ccc(/N=C\c3ccc(Cl)cc3)cc2)o1
- GI50 (NCI-H226): > 100 µM (inactive)
- GI50 (M19-MEL): > 100 µM (inactive)
- GI50 (KM-20L2): > 100 µM (inactive)
- GI50 (SN12C): > 100 µM (inactive)
- GI50 (HOP-18): > 100 µM (inactive)
- GI50 (EKVX): > 100 µM (inactive)
- GI50 (OVCAR-8): > 100 µM (inactive)
- GI50 (NCI-H23): > 100 µM (inactive)
- GI50 (UACC-257): > 100 µM (inactive)
- GI50 (HCT-15): > 100 µM
- GI50 (SF-295): > 100 µM (inactive)
- GI50 (786-0): > 100 µM (inactive)
- GI50 (SNB-78): > 100 µM (inactive)
- GI50 (COLO 205): > 100 µM (inactive)
- GI50 (XF498): > 100 µM (inactive)
- GI50 (RXF 393): > 100 µM (inactive)
- GI50 (OVCAR-4): > 100 µM (inactive)
- GI50 (TK-10): > 100 µM (inactive)
- GI50 (MOLT-4): > 100 µM (inactive)
- GI50 (HL-60): > 100 µM (inactive)
- GI50 (UACC-62): > 100 µM (inactive)
- GI50 (DMS-273): > 100 µM (inactive)
- GI50 (SNB-75): > 100 µM (inactive)
- GI50 (SNB-19): > 100 µM (inactive)
- GI50 (SK-MEL-28): > 100 µM (inactive)
- GI50 (A549): > 100 µM (inactive)
- GI50 (LXFL 529): > 100 µM (inactive)
- GI50 (UO-31): > 100 µM (inactive)
- GI50 (K562): > 100 µM (inactive)
- GI50 (SK-MEL-2): > 100 µM (inactive)
- GI50 (SR): > 100 µM (inactive)
- GI50 (ACHN): > 100 µM (inactive)
- GI50 (HOP-62): > 100 µM (inactive)
- GI50 (HCT-116): > 100 µM (inactive)
- GI50 (HT-29): > 100 µM (inactive)
- GI50 (CCRF-CEM): > 100 µM (inactive)
- GI50 (DMS-114): > 100 µM (inactive)
- GI50 (SF-268): > 100 µM (inactive)
- GI50 (RPMI-8226): > 100 µM (inactive)
- GI50 (SK-MEL-5): > 100 µM (inactive)
- GI50 (SW-620): > 100 µM (inactive)
- GI50 (M14): > 100 µM (inactive)
- GI50 (NCI-H460): > 100 µM (inactive)
- GI50 (KM12): > 100 µM (inactive)
- GI50 (SK-OV-3): > 100 µM (inactive)
- GI50 (Malme-3M): > 100 µM (inactive)
- GI50 (LOX IMVI): > 100 µM (inactive)
- GI50 (U-251): > 100 µM (inactive)

Reference: ChEMBL document CHEMBL1201862, “PubChem BioAssay data set” (2004)
